Source: patent publication US20230085307A1, “PYRIDAZINONE COMPOUND AND HERBICIDE” (NISSAN CHEMICAL CORPORATION, priority 2019, published 2023)

How the values were obtained:
[1] = tested on: barnyard grass; assay: Test Example 5: herbicidal effect by foliage application, plastic box (Table 20, symbol H); assay type: in vivo, barnyard grass (Echinochloa crus-galli); details: foliage application
Summary of the method: (§1)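 Plants were sown into sterilized diluvial soil under about 1.5 cm cover and kept in a greenhouse at 25° C. to 30° C. Fourteen days on, foliage received an even spray of the diluted emulsion. Herbicidal or crop effect was judged three weeks afterwards.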

[2] = tested on: persian speedwell; assay: Test Example 5: herbicidal effect by foliage application, plastic box (Table 20, symbol R); assay type: in vivo, Persian speedwell (Veronica persica); details: foliage application
Summary of the method: as §1

[3] = tested on: Japanese bulrush; assay: Test Example 2: herbicidal activity, application during weed generation under submerged conditions (Table 17, symbol B); assay type: in vivo, Japanese bulrush (Schoenoplectus juncoides); details: AAH 320 g/ha; application during weed generation, submerged conditions
Summary of the method: (§2)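 Effect on each weed is rated three weeks post-treatment, using the same scoring criteria as the preceding test. Plants grow from mixed-sown seed in flooded alluvial soil (4 cm water) at 25° C. to 30° C., and are treated at one to two leaves with diluted emulsion dropped onto the water.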

[4] = tested on: Italian ryegrass; assay: Test Example 4: herbicidal effect by soil treatment (Table 19, symbol K); assay type: in vivo, Italian ryegrass (Lolium multiflorum)
Summary of the method: (§3)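 In this soil treatment, the formulated compound reached the seeds only through the soil: seeds were buried about 1.5 cm deep in sterilized diluvial soil, then the diluted emulsion was sprayed over the surface. After three weeks at 25° C. to 30° C. in a greenhouse, effects were graded on criteria from an earlier test.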

[5] = tested on: southern crabgrass; assay: Test Example 5: herbicidal effect by foliage application, plastic box (Table 20, symbol F); assay type: in vivo, southern crabgrass (Digitaria ciliaris); details: foliage application
Summary of the method: as §1

[6] = tested on: green foxtail; assay: Test Example 5: herbicidal effect by foliage application, plastic box (Table 20, symbol G); assay type: in vivo, green foxtail (Setaria viridis); details: foliage application
Summary of the method: as §1

[7] = tested on: windgrass; assay: Test Example 4: herbicidal effect by soil treatment (Table 19, symbol L); assay type: in vivo, windgrass (Apera spica-venti)
Summary of the method: as §3

[8] = tested on: velvetleaf; assay: Test Example 5: herbicidal effect by foliage application, plastic box (Table 20, symbol M); assay type: in vivo, velvetleaf (Abutilon theophrasti); details: foliage application
Summary of the method: as §1

[9] = tested on: redroot pigweed; assay: Test Example 5: herbicidal effect by foliage application, plastic box (Table 20, symbol N); assay type: in vivo, redroot pigweed (Amaranthus retroflexus); details: foliage application, AAH 320 g/ha
Summary of the method: as §1

[10] = tested on: chickweed; assay: Test Example 5: herbicidal effect by foliage application, plastic box (Table 20, symbol P); assay type: in vivo, common chickweed (Stellaria media); details: foliage application, AAH 320 g/ha
Summary of the method: as §1

[11] = tested on: oval-leafed pondweed; assay: Test Example 1: herbicidal activity, application before weed generation under submerged conditions (Table 16, symbol C); assay type: in vivo, oval-leafed pondweed (Monochoria vaginalis); details: 320 g/ha applied herbicide
Summary of the method: (§4)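 Submerged Wagner pots (alluvial soil, 4 cm water) sown with weed seeds and planted with 2.5-leaf rice seedlings; emulsifiable concentrate diluted in water applied to water surface on sowing day. Held in greenhouse at 25-30 °C; injury scored 0-5 by herbicidal rate after three weeks.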

[12] = tested on: rice flat sedge; assay: Test Example 3: herbicidal effect by foliage application, Wagner pot (Table 18, symbol E); assay type: in vivo, rice flat sedge (Cyperus iria); details: for herbicidal effect on E (rice flat sedge), rating 0-5: 320 g/ha
Summary of the method: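 Plants were sown in alluvial soil held under 0.1–0.5 cm standing water and grown 14 days in a greenhouse at 25–30 °C. An emulsifiable formulation, water-diluted to the set dose, was then sprayed onto the foliage, and effects were scored three weeks later using previously defined criteria.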

[13] = tested on: wild oat; assay: Test Example 4: herbicidal effect by soil treatment (Table 19, symbol I); assay type: in vivo, wild oat (Avena fatua)
Summary of the method: as §3

[14] = tested on: oval-leafed pondweed; assay: Test Example 2: herbicidal activity, application during weed generation under submerged conditions (Table 17, symbol C); assay type: in vivo, oval-leafed pondweed (Monochoria vaginalis); details: AAH 320 g/ha; application during weed generation, submerged conditions
Summary of the method: as §2

[15] = tested on: late watergrass; assay: Test Example 1: herbicidal activity, application before weed generation under submerged conditions (Table 16, symbol A); assay type: in vivo, late watergrass (Echinochloa oryzicola); details: 320 g/ha applied herbicide
Summary of the method: as §4

[16] = AAH 320 g/ha, three weeks after application
[17] = amount of applied herbicide 320 g/ha
[18] = 320 g/ha, 3 weeks after application
[19] = AAH 320 g/ha, evaluated three weeks after application
[20] = evaluated three weeks after application

SMILES: Cc1nn(C)c(=O)c(-c2c(-c3ccc4c(c3)OCCO4)sc3ccccc23)c1O [1-089]
- H: barnyard grass, herbicidal effect [1, 16]: 5 (Herbicidal rate of 90% or more (almost completely withered))
- R: persian speedwell, herbicidal effect [2, 16]: 5 (Herbicidal rate of 90% or more (almost completely withered))
- herbicidal effect rating, B: Japanese bulrush [3]: 1 (Herbicidal rate of 5% or more and less than 20%)
- herbicidal effect rating, K: Italian ryegrass [4, 17]: 0 (Herbicidal rate of 5% or less (almost no effect))
- F: southern crabgrass, herbicidal effect [5, 16]: 4 (Herbicidal rate of 70% or more and less than 90%)
- G: green foxtail, herbicidal effect [6, 16]: 5 (Herbicidal rate of 90% or more (almost completely withered))
- herbicidal effect rating, L: windgrass [7, 17]: 0 (Herbicidal rate of 5% or less (almost no effect))
- M: velvetleaf, herbicidal effect [8, 16]: 5 (Herbicidal rate of 90% or more (almost completely withered))
- N: redroot pigweed, herbicidal effect ([9]; three weeks after application): 1 (Herbicidal rate of 5% or more and less than 20%)
- P: chickweed, herbicidal effect ([10]; three weeks after application): 5 (Herbicidal rate of 90% or more (almost completely withered))
- Herbicidal effect on C: oval-leafed pondweed (grade 0-5) [11]: 4 (Herbicidal rate of 70% or more and less than 90%)
- herbicidal effect on E (rice flat sedge), rating 0-5 [12]: 5 (Herbicidal rate of 90% or more (almost completely withered))
- herbicidal effect rating, I: wild oat [13, 17]: 0 (Herbicidal rate of 5% or less (almost no effect))
- herbicidal effect rating, C: oval-leafed pondweed [14]: 1 (Herbicidal rate of 5% or more and less than 20%)
- Herbicidal effect on A: late watergrass (grade 0-5) [15]: 5 (Herbicidal rate of 90% or more (almost completely withered))

SMILES: Cc1nn(C)c(=O)c(-c2c(-c3ccccc3OC(F)(F)F)sc3ccc(F)cc23)c1O [2-043]
- effect on barnyard grass (H) [1, 18]: 4 (Herbicidal rate of 70% or more and less than 90%)
- effect on persian speedwell (R) [2, 18]: 5 (Herbicidal rate of 90% or more (almost completely withered))
- herbicidal effect rating, B: Japanese bulrush [3]: 2 (Herbicidal rate of 20% or more and less than 40%)
- herbicidal effect rating, K: Italian ryegrass ([4]; 320 g/ha): 0 (Herbicidal rate of 5% or less (almost no effect))
- effect on southern crabgrass (F) [5, 18]: 4 (Herbicidal rate of 70% or more and less than 90%)
- effect on green foxtail (G) [6, 18]: 5 (Herbicidal rate of 90% or more (almost completely withered))
- herbicidal effect rating, L: windgrass ([7]; 320 g/ha): 0 (Herbicidal rate of 5% or less (almost no effect))
- effect on velvetleaf (M) [8, 18]: 5 (Herbicidal rate of 90% or more (almost completely withered))
- Herbicidal effect on C: oval-leafed pondweed (grade 0-5) [11]: 1 (Herbicidal rate of 5% or more and less than 20%)
- herbicidal effect on E (rice flat sedge), rating 0-5 [12]: 5 (Herbicidal rate of 90% or more (almost completely withered))
- herbicidal effect rating, I: wild oat ([13]; 320 g/ha): 0 (Herbicidal rate of 5% or less (almost no effect))
- herbicidal effect rating, C: oval-leafed pondweed [14]: 0 (Herbicidal rate of 5% or less (almost no effect))
- Herbicidal effect on A: late watergrass (grade 0-5) [15]: 0 (Herbicidal rate of 5% or less (almost no effect))

SMILES: C=CCSCc1ccc(-c2sc3ccc(F)cc3c2-c2c(O)c(C)nn(C)c2=O)cc1 [2-323]
- H: barnyard grass, herbicidal effect (criteria 0-5) [1, 19]: 4 (Herbicidal rate of 70% or more and less than 90%)
- R: persian speedwell, herbicidal effect (criteria 0-5) [2, 19]: 5 (Herbicidal rate of 90% or more (almost completely withered))
- herbicidal effect rating, B: Japanese bulrush [3]: 0 (Herbicidal rate of 5% or less (almost no effect))
- herbicidal effect on K: Italian ryegrass [4, 17]: 4 (Herbicidal rate of 70% or more and less than 90%)
- F: southern crabgrass, herbicidal effect (criteria 0-5) [5, 19]: 5 (Herbicidal rate of 90% or more (almost completely withered))
- G: green foxtail, herbicidal effect (criteria 0-5) [6, 19]: 5 (Herbicidal rate of 90% or more (almost completely withered))
- herbicidal effect on L: windgrass [7, 17]: 0 (Herbicidal rate of 5% or less (almost no effect))
- M: velvetleaf, herbicidal effect (criteria 0-5) [8, 19]: 5 (Herbicidal rate of 90% or more (almost completely withered))
- N: redroot pigweed, herbicidal effect (criteria 0-5) [9, 20]: 5 (Herbicidal rate of 90% or more (almost completely withered))
- P: chickweed, herbicidal effect (criteria 0-5) [10, 20]: 5 (Herbicidal rate of 90% or more (almost completely withered))
- Herbicidal effect on C: oval-leafed pondweed (grade 0-5) [11]: 0 (Herbicidal rate of 5% or less (almost no effect))
- herbicidal effect on E: rice flat sedge [12, 17]: 3 (Herbicidal rate of 40% or more and less than 70%)
- herbicidal effect on I: wild oat [13, 17]: 0 (Herbicidal rate of 5% or less (almost no effect))
- herbicidal effect rating, C: oval-leafed pondweed [14]: 0 (Herbicidal rate of 5% or less (almost no effect))
- Herbicidal effect on A: late watergrass (grade 0-5) [15]: 4 (Herbicidal rate of 70% or more and less than 90%)
